Measurements published in ChEMBL document CHEMBL4359884, “Design, synthesis and biological evaluation of novel pleuromutilin derivatives possessing acetamine phenyl linker” (Eur J Med Chem, 2019).
Converted amounts (≈) assume the structure as drawn.

How the values were obtained:
Escherichia coli [1] = experiment: Antibacterial activity against Escherichia coli 9-1 assessed as bacterial growth inhibition incubated for 24 hrs by broth dilution method; assay type: functional; conditions: 9-1, 24 h
Staphylococcus aureus [2] = experiment: Antibacterial activity against methicillin-resistant Staphylococcus aureus ATCC 43300 assessed as bacterial growth inhibition incubated for 24 hrs by broth dilution method; assay type: functional; conditions: ATCC 43300, 24 h
Staphylococcus aureus [3] = experiment: Antibacterial activity against Staphylococcus aureus ATCC 29213 assessed as bacterial growth inhibition incubated for 24 hrs by broth dilution method; assay type: functional; conditions: ATCC 29213, 24 h
Staphylococcus aureus [4] = experiment: Antibacterial activity against Staphylococcus aureus AD3 assessed as bacterial growth inhibition incubated for 24 hrs by broth dilution method; assay type: functional; conditions: AD3, 24 h
Escherichia coli [5] = experiment: Antibacterial activity against Escherichia coli ATCC 25922 assessed as bacterial growth inhibition incubated for 24 hrs by broth dilution method; assay type: functional; conditions: ATCC 25922, 24 h
Staphylococcus aureus [6] = experiment: Antibacterial against methicillin-resistant Staphylococcus aureus ATCC 43300 assessed as post antibiotic effect time at 4 times MIC incubated for 1 hr followed by compound washout and then incubated for 20 hrs onto MH agar plate; assay type: functional
Staphylococcus aureus [7] = experiment: Bactericidal activity against methicillin-resistant Staphylococcus aureus ATCC 43300 assessed as reduction in bacterial growth at 4 times MIC incubated for 24 hrs followed by compound dilution with saline and then incubated for 20 hrs on MH agar plate by time-kill kinetics assay relative to control; assay type: functional; parameters: scale not given: the % may be the effect or the level left
[8] = Tmax in ICR mouse at 10 mg/kg, iv by LC-MS/MS analysis; assay type: ADME, organism-based; conditions: in vivo
Staphylococcus aureus [9] = experiment: Antibacterial activity against methicillin-resistant Staphylococcus aureus infected in systemic infection ICR mouse model assessed as animal survival rate at 30 mg/kg, iv relative to control; assay type: functional
[10] = AUC (0 to t) in ICR mouse at 10 mg/kg, iv by LC-MS/MS analysis; assay type: ADME, organism-based; conditions: in vivo
Staphylococcus aureus [11] = experiment: Antibacterial against methicillin-resistant Staphylococcus aureus ATCC 43300 assessed as post antibiotic effect time at 2 times MIC incubated for 1 hr followed by compound washout and then incubated for 20 hrs onto MH agar plate; assay type: functional
[12] = AUC (0 to infinity) in ICR mouse at 10 mg/kg, iv by LC-MS/MS analysis; assay type: ADME, organism-based; parameters: dose 10 mg/kg, route intravenous, time infinity; conditions: in vivo
Staphylococcus aureus [13] = experiment: (§1) Bactericidal activity against methicillin-resistant Staphylococcus aureus ATCC 43300 assessed as reduction in colony forming unit at 4 times MIC incubated for 3 hrs followed by compound dilution with saline and then incubated for 20 hrs on MH agar plate by time-kill kinetics assay; assay type: functional
[14] = Cmax in ICR mouse at 10 mg/kg, iv by LC-MS/MS analysis; assay type: ADME, organism-based; parameters: dose 10 mg/kg, route intravenous; conditions: in vivo
Staphylococcus aureus [15] = experiment: Antibacterial against methicillin-resistant Staphylococcus aureus ATCC 43300 assessed as post antibiotic effect time at 4 times MIC incubated for 2 hrs followed by compound washout and then incubated for 20 hrs onto MH agar plate; assay type: functional
Staphylococcus aureus [16] = experiment: Antibacterial activity against methicillin-resistant Staphylococcus aureus infected in neutropenic thigh infection ICR/Swiss mouse model assessed reduction in colony forming unit in thigh at 20 mg/kg, iv administered 2 hrs post infection and measured at 24 hrs after drug dosage; assay type: functional
[17] = MRT in ICR mouse at 10 mg/kg, iv by LC-MS/MS analysis; assay type: ADME, organism-based; conditions: in vivo
[18] = Half life in ICR mouse at 10 mg/kg, iv by LC-MS/MS analysis; assay type: ADME, organism-based; conditions: in vivo
[19] = Clearance in ICR mouse at 10 mg/kg, iv by LC-MS/MS analysis; assay type: ADME, organism-based; conditions: in vivo
Staphylococcus aureus [20] = experiment: Antibacterial against methicillin-resistant Staphylococcus aureus ATCC 43300 assessed as post antibiotic effect time at 2 times MIC incubated for 2 hrs followed by compound washout and then incubated for 20 hrs onto MH agar plate; assay type: functional
Staphylococcus aureus [21] = experiment: as §1, with “assay relative to control” for “assay”; assay type: functional; parameters: scale not given: the % may be the effect or the level left
Staphylococcus aureus [22] = experiment: Bactericidal activity against methicillin-resistant Staphylococcus aureus ATCC 43300 assessed as reduction in colony forming unit at 4 times MIC incubated for 24 hrs followed by compound dilution with saline and then incubated for 20 hrs on MH agar plate by time-kill kinetics assay; assay type: functional

Compound | MIC (Escherichia coli [1]) [µg/mL] | MIC (Staphylococcus aureus [2]) [µg/mL] | MIC (Staphylococcus aureus [3]) [µg/mL] | MIC (Staphylococcus aureus [4]) [µg/mL] | MIC (Escherichia coli [5]) [µg/mL] | other results
C=C[C@]1(C)C[C@@H](OC(=O)CSc2ccccc2NC(=O)CN2CCN(c3ccccc3)CC2)[C@]2(C)[C@H](C)CC[C@]3(CCC(=O)[C@H]32)[C@@H](C)[C@@H]1O | > 32 | 0.25 (≈ 0.363 µM) | 0.25 (≈ 0.363 µM) | 0.25 (≈ 0.363 µM) | > 32 | –
C=C[C@]1(C)C[C@@H](OC(=O)CSc2ccccc2NC(=O)CN2CCN(c3ccc(C)cc3)CC2)[C@]2(C)[C@H](C)CC[C@]3(CCC(=O)[C@H]32)[C@@H](C)[C@@H]1O | > 32 | > 8 | > 8 | > 8 | > 32 | –
C=C[C@]1(C)C[C@@H](OC(=O)CSc2ccccc2NC(=O)CN2CCN(C)CC2)[C@]2(C)[C@H](C)CC[C@]3(CCC(=O)[C@H]32)[C@@H](C)[C@@H]1O | > 32 | 0.5 (≈ 0.799 µM) | 0.5 (≈ 0.799 µM) | 0.5 (≈ 0.799 µM) | > 32 | –
C=C[C@]1(C)C[C@@H](OC(=O)CSc2ccccc2NC(=O)CN2CCN(c3ccc(O)cc3)CC2)[C@]2(C)[C@H](C)CC[C@]3(CCC(=O)[C@H]32)[C@@H](C)[C@@H]1O | > 32 | 1 (≈ 1.42 µM) | 1 (≈ 1.42 µM) | 0.5 (≈ 0.71 µM) | > 32 | –
C=C[C@]1(C)C[C@@H](OC(=O)CSc2ccccc2NC(=O)CN(CC)CC)[C@]2(C)[C@H](C)CC[C@]3(CCC(=O)[C@H]32)[C@@H](C)[C@@H]1O | > 32 | 0.125 (≈ 0.209 µM) | 0.125 (≈ 0.209 µM) | 0.125 (≈ 0.209 µM) | > 32 | –
C=C[C@]1(C)C[C@@H](OC(=O)CSc2ccccc2NC(=O)CN2CCN(c3ccccc3OC)CC2)[C@]2(C)[C@H](C)CC[C@]3(CCC(=O)[C@H]32)[C@@H](C)[C@@H]1O | > 32 | > 8 | > 8 | > 8 | > 32 | –
C=C[C@]1(C)C[C@@H](OC(=O)CSc2ccccc2NC(=O)CN2CCN(c3cccc(O)c3)CC2)[C@]2(C)[C@H](C)CC[C@]3(CCC(=O)[C@H]32)[C@@H](C)[C@@H]1O | > 32 | 0.125 (≈ 0.178 µM) | 0.25 (≈ 0.355 µM) | 0.25 (≈ 0.355 µM) | > 32 | –
C=C[C@]1(C)C[C@@H](OC(=O)CSc2ccccc2NC(=O)CN2CCN(c3cccc(OC)c3)CC2)[C@]2(C)[C@H](C)CC[C@]3(CCC(=O)[C@H]32)[C@@H](C)[C@@H]1O | > 32 | 4 (≈ 5.57 µM) | > 8 | 1 (≈ 1.39 µM) | > 32 | –
C=C[C@]1(C)C[C@@H](OC(=O)CSc2ccccc2NC(=O)CN2CCC(O)CC2)[C@]2(C)[C@H](C)CC[C@]3(CCC(=O)[C@H]32)[C@@H](C)[C@@H]1O | > 32 | 0.125 (≈ 0.199 µM) | 0.125 (≈ 0.199 µM) | 0.25 (≈ 0.399 µM) | > 32 | –
C=C[C@]1(C)C[C@@H](OC(=O)CSc2ccccc2NC(=O)CN2CCN(c3ccccc3C)CC2)[C@]2(C)[C@H](C)CC[C@]3(CCC(=O)[C@H]32)[C@@H](C)[C@@H]1O | > 32 | 2 (≈ 2.85 µM) | 4 (≈ 5.7 µM) | 2 (≈ 2.85 µM) | > 32 | –
C=C[C@]1(C)C[C@@H](OC(=O)CSc2ccccc2NC(=O)CN2CCN(c3ccccc3Cl)CC2)[C@]2(C)[C@H](C)CC[C@]3(CCC(=O)[C@H]32)[C@@H](C)[C@@H]1O | > 32 | 8 (≈ 11.1 µM) | 8 (≈ 11.1 µM) | 8 (≈ 11.1 µM) | > 32 | –
C=C[C@]1(C)C[C@@H](OC(=O)CSc2ccccc2NC(=O)CN2CCN(c3cccc(Cl)c3)CC2)[C@]2(C)[C@H](C)CC[C@]3(CCC(=O)[C@H]32)[C@@H](C)[C@@H]1O | > 32 | 1 (≈ 1.38 µM) | 1 (≈ 1.38 µM) | 2 (≈ 2.77 µM) | > 32 | –
C=C[C@]1(C)C[C@@H](OC(=O)CSc2ccccc2NC(=O)CN2CCC(O)C2)[C@]2(C)[C@H](C)CC[C@]3(CCC(=O)[C@H]32)[C@@H](C)[C@@H]1O (some centres not stated) | > 32 | 0.125 (≈ 0.204 µM) | 0.25 (≈ 0.408 µM) | 0.25 (≈ 0.408 µM) | > 32 | –
C=C[C@]1(C)C[C@@H](OC(=O)CSc2ccccc2NC(=O)CN2CCN(c3cccc(C)c3)CC2)[C@]2(C)[C@H](C)CC[C@]3(CCC(=O)[C@H]32)[C@@H](C)[C@@H]1O | > 32 | > 8 | > 8 | > 8 | > 32 | –
C=C[C@]1(C)C[C@@H](OC(=O)CSc2ccccc2NC(=O)CN2CCOCC2)[C@]2(C)[C@H](C)CC[C@]3(CCC(=O)[C@H]32)[C@@H](C)[C@@H]1O | > 32 | 0.06 (≈ 0.0979 µM) | 0.06 (≈ 0.0979 µM) | 0.125 (≈ 0.204 µM) | > 32 | Time (Staphylococcus aureus [6]): 2.05 h; Activity (Staphylococcus aureus [7]): 100%; Tmax [8]: 4.98 min; Activity (Staphylococcus aureus [9]): 60%; AUC(0-t) [10]: 470 ng·h/mL; Time (Staphylococcus aureus [11]): 1.62 h; AUC(0-inf) [12]: 480 ng·h/mL; Activity (Staphylococcus aureus [13]): 2.19 log10CFU/ml; Cmax [14]: 1760 ng/mL; Time (Staphylococcus aureus [15]): 3.47 h; Activity (Staphylococcus aureus [16]): 1.4 log10CFU/ml; MRT [17]: 36.6 min; half-life [18]: 413 min; clearance [19]: 361 mL/min/kg; Time (Staphylococcus aureus [20]): 2.64 h
C=C[C@]1(C)C[C@@H](OC(=O)CSc2ccccc2NC(=O)CN2CCN(c3ccc([N+](=O)[O-])cc3)CC2)[C@]2(C)[C@H](C)CC[C@]3(CCC(=O)[C@H]32)[C@@H](C)[C@@H]1O | > 32 | 2 (≈ 2.73 µM) | 4 (≈ 5.46 µM) | 2 (≈ 2.73 µM) | > 32 | –
C=C[C@]1(C)C[C@@H](OC(=O)CSc2ccccc2NC(=O)CN2CCN(c3ccccc3F)CC2)[C@]2(C)[C@H](C)CC[C@]3(CCC(=O)[C@H]32)[C@@H](C)[C@@H]1O | > 32 | 2 (≈ 2.83 µM) | 8 (≈ 11.3 µM) | 1 (≈ 1.42 µM) | > 32 | –
C=C[C@]1(C)C[C@@H](OC(=O)CSc2ccccc2NC(=O)CN2CCN(c3cccc([N+](=O)[O-])c3)CC2)[C@]2(C)[C@H](C)CC[C@]3(CCC(=O)[C@H]32)[C@@H](C)[C@@H]1O | > 32 | 4 (≈ 5.46 µM) | 4 (≈ 5.46 µM) | 4 (≈ 5.46 µM) | > 32 | –
C=C[C@]1(C)C[C@@H](OC(=O)CSc2ccccc2NC(=O)CN2CCN(c3ccccc3O)CC2)[C@]2(C)[C@H](C)CC[C@]3(CCC(=O)[C@H]32)[C@@H](C)[C@@H]1O | > 32 | 1 (≈ 1.42 µM) | 2 (≈ 2.84 µM) | 0.5 (≈ 0.71 µM) | > 32 | –
C=C[C@]1(C)C[C@@H](OC(=O)CSc2ccccc2NC(=O)CN2CCN(c3ccccc3[N+](=O)[O-])CC2)[C@]2(C)[C@H](C)CC[C@]3(CCC(=O)[C@H]32)[C@@H](C)[C@@H]1O | > 32 | 4 (≈ 5.46 µM) | > 8 | > 8 | > 32 | –
C=C[C@]1(C)C[C@@H](OC(=O)CSc2ccccc2NC(=O)CN2CCCC2)[C@]2(C)[C@H](C)CC[C@]3(CCC(=O)[C@H]32)[C@@H](C)[C@@H]1O | > 32 | 0.25 (≈ 0.419 µM) | 0.125 (≈ 0.209 µM) | 0.125 (≈ 0.209 µM) | > 32 | –
C=C[C@]1(C)C[C@@H](OC(=O)CSc2ccccc2NC(=O)CN2CCN(c3ccc(OC)cc3)CC2)[C@]2(C)[C@H](C)CC[C@]3(CCC(=O)[C@H]32)[C@@H](C)[C@@H]1O | > 32 | 2 (≈ 2.79 µM) | 4 (≈ 5.57 µM) | 0.5 (≈ 0.696 µM) | > 32 | –
C=C[C@]1(C)C[C@@H](OC(=O)CSCCN(CC)CC)[C@]2(C)[C@H](C)CC[C@]3(CCC(=O)[C@H]32)[C@@H](C)[C@@H]1O [TIAMULIN] | – | 0.5 (≈ 1.01 µM) | 1 (≈ 2.03 µM) | 0.5 (≈ 1.01 µM) | – | Time (Staphylococcus aureus [6]): 1.9 h; Activity (Staphylococcus aureus [21]): 97%; Activity (Staphylococcus aureus [9]): 20%; Activity (Staphylococcus aureus [22]): 1.9 log10CFU/ml; Time (Staphylococcus aureus [11]): 1.53 h; Activity (Staphylococcus aureus [13]): 1.54 log10CFU/ml; Time (Staphylococcus aureus [15]): 2.04 h; Activity (Staphylococcus aureus [16]): 0.59 log10CFU/ml; Time (Staphylococcus aureus [20]): 1.65 h
